US9353104B2, “Substituted pyridizinone derivatives as PDE10 inhibitors” (priority 2013, dated 2016)
pKi: −log10 of the molar value.

Molecular target: human PDE10A2 (Homo sapiens (Human), UniProt Q9Y233)
Assay: PDE10 fluorescence polarization (IMAP FP) inhibition assay
Type: biochemical
Conditions: human PDE10A2 lysate, FAM-labeled cAMP 50 nM, room temperature; read-out: PDE10A Ki
How it was run: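 Cytoplasmic lysate of AD293 cells transiently expressing human PDE10A2, diluted for ~20% conversion of 50 nM FAM-cAMP, in 10 mM Tris pH 7.2, 10 mM MgCl2, 1 mM DTT, 0.01% Tween-20. Reaction 30 min at room temperature, read by IMAP fluorescence polarization; 10-point 3-fold titrations, 1% DMSO as 0%, reference PDE10 inhibitor at 5,000× Ki as 100%.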

Sequence of human PDE10A2 (Q9Y233 267-1055): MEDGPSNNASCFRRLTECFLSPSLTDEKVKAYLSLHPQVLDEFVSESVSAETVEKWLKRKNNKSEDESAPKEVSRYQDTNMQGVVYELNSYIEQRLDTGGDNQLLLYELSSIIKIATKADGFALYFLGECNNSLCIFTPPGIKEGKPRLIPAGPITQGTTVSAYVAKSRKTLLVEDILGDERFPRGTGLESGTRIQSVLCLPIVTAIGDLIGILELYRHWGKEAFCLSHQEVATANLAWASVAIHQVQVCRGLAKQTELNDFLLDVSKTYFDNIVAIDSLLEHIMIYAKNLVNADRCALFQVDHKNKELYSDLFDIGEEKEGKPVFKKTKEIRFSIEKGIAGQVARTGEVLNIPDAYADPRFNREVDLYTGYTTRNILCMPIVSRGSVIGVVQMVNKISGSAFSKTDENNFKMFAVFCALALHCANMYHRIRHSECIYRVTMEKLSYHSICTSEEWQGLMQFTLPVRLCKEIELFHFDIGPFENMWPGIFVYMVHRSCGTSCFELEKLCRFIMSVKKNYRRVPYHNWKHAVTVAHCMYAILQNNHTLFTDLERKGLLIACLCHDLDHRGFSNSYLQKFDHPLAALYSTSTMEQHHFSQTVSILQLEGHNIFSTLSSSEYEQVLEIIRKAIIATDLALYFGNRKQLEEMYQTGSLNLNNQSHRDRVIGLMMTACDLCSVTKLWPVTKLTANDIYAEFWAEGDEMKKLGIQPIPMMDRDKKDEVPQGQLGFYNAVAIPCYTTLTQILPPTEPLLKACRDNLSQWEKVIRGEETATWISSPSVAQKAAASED

Row | pKi | SMILES
1 | 10.70 | Cc1cc(CNc2cc(OC[C@H]3C[C@@H]3c3ccc(Cl)cn3)nn(C)c2=O)n(C)n1 [Example 33, 6-(((1S,2S)-2-(5-chloropyridin-2-yl)cyclopropyl)methoxy)-4-((1,3-dimethyl-1H-pyrazol-5-yl)methylamino)-2-methylpyridazin-3(2H)-one]
2 | 11.40 | COc1ccc([C@H]2C[C@@H]2COc2nn(C)c(=O)c(NCc3nnc(C)s3)c2Cl)nc1 [Example 141, 5-chloro-6-(((1S,2S)-2-(5-methoxypyridin-2-yl)cyclopropyl)methoxy)-2-methyl-4-((5-methyl-1,3,4-thiadiazol-2-yl)methylamino)pyridazin-3(2H)-one]
3 | 7.37 | COc1ccc([C@H]2C[C@@H]2COc2cc(NCc3cnn(C)c3N(C)C)c(=O)n(C)n2)nc1 [Example 83, 4-(((5-(dimethylamino)-1-methyl-1H-pyrazol-4-yl)methyl)amino)-6-(((1S,2S)-2-(5-methoxypyridin-2-yl)cyclopropyl)methoxy)-2-methylpyridazin-3(2H)-one]
4 | 7.12 | Cc1cc(C(=O)Nc2cc(OC[C@H]3C[C@@H]3c3ccn(C)n3)nn(C)c2=O)n(C)n1 [Example 103, 1,3-dimethyl-N-(2-methyl-6-(((1S,2S)-2-(1-methyl-1H-pyrazol-3-yl)cyclopropyl)methoxy)-3-oxo-2,3-dihydropyridazin-4-yl)-1H-pyrazole-5-carboxamide]
5 | 10.68 | COc1ccc(CNc2cc(OC[C@H]3C[C@@H]3c3ccc(OC)cn3)nn(C)c2=O)cc1 [Example 133, 4-(4-methoxybenzyl-amino)-6-(((1S,2S)-2-(5-methoxypyridin-2-yl)-cyclopropyl)methoxy)-2-methylpyridazin-3(2H)one]
6 | 10.68 | Cc1ccc(CNc2cc(OC[C@H]3C[C@@H]3c3ccccn3)nn(C)c2=O)c(C)n1 [Example 55, 4-(((2,6-dimethylpyridin-3-yl)methyl)amino)-2-methyl-6-(((1S,2S)-2-(pyridin-2-yl)cyclopropyl-)-methoxy)pyridazin-3(2H)-one]
7 | 8.28 | COc1ccc([C@H]2C[C@@H]2COc2cc(NCc3ccc(F)c(C)n3)c(=O)n(C)n2)nc1 [Example 74, 4-(((5-fluoro-6-methyl-pyridin2yl)methyl)amino)-6-(((1S,2S)-2-(5-methoxy-pyridin-2-yl)cyclopropyl-)-methoxy)-2-methyl-pyridazin-3(2H)-one]
8 | 11.52 | COc1ccc([C@H]2C[C@@H]2COc2cc(NCc3ccc(C)nc3C)c(=O)n(C)n2)nc1 [Example 50, 4-(((2,6-dimethylpyridin-3-yl)methyl)amino)-6-(((1S,2S)-2-(5-methoxypyridin-2-yl)cyclopropyl)methoxy)-2-methylpyridazin-3(2H)-one]
9 | 11.00 | COc1ccc([C@H]2C[C@@H]2COc2cc(NCc3cc(C)on3)c(=O)n(C)n2)nc1 [Example 87, 6-(((1S,2S)-2-(5-methoxypyridin-2-yl)cyclopropyl)methoxy)-2-methyl-4-(((5-methylisoxazol-3-yl)methyl)amino)pyridazin-3(2H)-one]
10 | 10.34 | Cc1cc(CNc2cc(OC[C@H]3C[C@@H]3c3ccc(OC(F)F)cn3)nn(C)c2=O)n(C)n1 [Example 28, 6-(((1S,2S)-2-(5-(difluoro-methoxy)pyridin-2-yl)-cyclopropyl)-methoxy)-4-((1,3-dimethyl-1H-pyrazol-5-yl)methyl-amino)-2-methylpyridazin-3(2H)one]
11 | 11.15 | Cc1ccc([C@H]2C[C@@H]2COc2cc(NCc3ccc(C)nc3C)c(=O)n(C)n2)nc1 [Example 52, 4-(((2,6-dimethylpyridin-3-yl)methyl)amino)-2-methyl-6-(((1S,2S)-2-(5-methylpyridin-2-yl)cyclopropyl)methoxy)-pyridazin-3(2H)-one]

Row | SMILES | pKi
12 | Cc1ncc(CNc2cc(OC[C@H]3C[C@@H]3c3ccn(C)n3)nn(C)c2=O)s1 [Example 2, 2-methyl-6-(((1S,2S)-2-(1-methyl-1H-pyrazol-3-yl)cyclopropyl)methoxy)-4-((2-methylthiazol-5-yl)methylamino)pyridazin-3(2H)-one] | 10.05
